# From patent US8168631B2, “3-(4-fluorophenyl)-3-hydroxy-2-amino-propionic acid amides and related compounds having analgesic activity” (Allergan, Inc., priority 2008, dated 2012)
# Structures can show the parent of a compound that is named as a salt.
# Tested on: nerve-ligation induced pain (rat model of spinal nerve ligation, SNL)
# Experiment: Neuropathic pain model (Chung model): rat spinal nerve ligation, mechanical allodynia by Von Frey hairs
# Format: in vivo
# Details: for reversed pain in the Chung model: 1 mg/kg, time not given
# Method: [drawing 23] and all racemic mixtures of the two optical isomers are also included. Analgesic Activity in the Neuropathic Pain Model (the Chung Model)
# Several of the compounds disclosed herein were tested in the rat model of spinal nerve ligation (SNL) which involves a traumatic partial nerve injury, involving tight ligation of the L5 and L6 spinal nerves (Kim and Chung, 1992). Pain, including mechanical allodynia and thermal hyperalgesia, persists in the absence of ongoing tissue injury for more than 2 months following the surgery. The ability of the drug to alleviate the mechanical allodynia was assessed using a series of Von Frey hairs applied to the mid-plantar area of the ipsilateral hind paw before and after drug administration. The paw withdrawal threshold was determined using a standard up-down testing method (Dixon, 1980) and expressed relative to the paw withdrawal threshold in uninjured rats.
# • Kim S H, Chung J M. An experimental model for peripheral neuropathy produced by segmental spinal nerve ligation in the rat, Pain 1992; 50 (3): 355-63. • Dixon W J. Efficient analysis of experimental observations. Annu Rev Pharmacol Toxicol 1980; 20: 441-62.
SMILES,reversed pain in the Chung model,"Percent pain reversal at time in min (dose 0.3 mg/kg, 15 min)","Percent pain reversal at time in min (dose 0.3 mg/kg, 30 min)","Percent pain reversal at time in min (dose 0.3 mg/kg, 60 min)","Percent pain reversal at time in min (dose 1 mg/kg, 15 min)","Percent pain reversal at time in min (dose 1 mg/kg, 30 min)","Percent pain reversal at time in min (dose 1 mg/kg, 60 min)","Percent pain reversal at time in min (dose 0.1 mg/kg, 15 min)","Percent pain reversal at time in min (dose 0.1 mg/kg, 30 min)","Percent pain reversal at time in min (dose 0.1 mg/kg, 60 min)"
"N[C@@H](C(=O)N1CCCC1)[C@@H](O)c1ccc(F)cc1 (racemic) [Compound 1, (±)-threo-2-Amino-3-(4-fluorophenyl)-3-hydroxy-1-(pyrrolidin-1-yl)propan-1-one hydrochloride]",64%,17%,29%,52%,28%,52%,64%,,,
N[C@@H](C(=O)N1CCCC1)[C@@H](O)c1ccc(I)cc1 (racemic) [reference compound],,4.3%,5.8%,7.3%,,,,,,
N[C@@H](C(=O)N1CCCC1)[C@@H](O)c1ccc(Cl)cc1 (racemic) [reference compound],,4.8%,7.5%,8.6%,,,,,,
"N[C@@H](C(=O)N1CCCC1)[C@@H](O)c1ccc(F)cc1 [Compound 3, (−)-threo-2-Amino-3-(4-fluorophenyl)-3-hydroxy-1-(pyrrolidin-1-yl)propan-1-one hydrochloride]",86%,26.7%,53.6%,75.5%,57.2%,73.5%,86.2%,1.2%,20.2%,43.2%
